From patent US11031562B2, “Metal complexes” (Merck Patent GmbH, priority 2015, dated 2021)

Columns and labels:
Format in all cases: physicochemical
[1] = Photoluminescence in solution (PL-max., PL quantum efficiency); conditions: solvent toluene; room temperature, degassed solution
[2] = Oxidation and reduction potentials by CV (HOMO, LUMO); conditions: in eV (unit assumed); for HOMO: Ox. in DCM; for LUMO: Red. in THF
[3] = Photostability in anhydrous C6D6 solution under irradiation with light of about 455 nm, checked by 1H NMR; conditions: irradiation with light of wavelength about 455 nm
[4] = Thermal stability: thermal storage at 360° C. for 7 days, checked by 1H NMR

| Compound | PL-max. [1] | PLQE [1] | HOMO [2] | LUMO [2] | Photo. stab. [3] | Therm. stab. [4] |
| --- | --- | --- | --- | --- | --- | --- |
| c1ccc(-c2cc(-c3ccccc3)cc(-c3cccc(-c4cc[c]5c(c4)-c4cccc[n+]4[Ir-3]546([c]5ccc(-c7cccc(-c8cc(-c9ccccc9)cc(-c9ccccc9)c8)c7)cc5-c5cccc[n+]54)[c]4ccc(-c5cccc(-c7cc(-c8ccccc8)cc(-c8ccccc8)c7)c5)cc4-c4cccc[n+]46)c3)c2)cc1 [Ir1, reference compound] | 513 | 0.97 | −5.09 | −1.99 |  |  |
| Cc1cc2[n+](cc1-c1ccccc1)[Ir-3]13([c]4ccccc4-c4cccc[n+]41)([c]1ccccc1-c1cccc[n+]13)[c]1ccccc1-2 [Ir2, reference compound] | 516 | 0.97 | −5.05 | −1.71 | decomposition | decomposition |
| O=C1Oc2cc3cc(c2)OC(=O)c2ccc4[c](c2)[Ir-3]25([c]6cc1ccc6-c1cccc[n+]12)([c]1cc(ccc1-c1cccc[n+]15)C(=O)O3)[n+]1ccccc1-4 [Ir(L200)] | 552 | 0.94 | −5.66 | −2.64 | no decomp. | no decomp. |
| CN1C(=O)c2ccc3[c](c2)[Ir-3]245([c]6cc(ccc6-c6cccc[n+]62)C(=O)N(C)c2cc1cc(c2)N(C)C(=O)c1ccc([c]4c1)-c1cccc[n+]15)[n+]1ccccc1-3 [Ir(L300)] | 539 | 0.95 | −5.34 | −2.29 | no decomp. | no decomp. |
